Assays:
PBMC of PDAC patients = assay: Ex vivo genipin treatment of PBMC of PDAC patients, flow cytometry; type: cell-based, human
Description: (§1) Monoclonal antibodies were purchased from BD Biosciences or eBioscience. For intracellular cytokine staining (ICS), cells were first restimulated by PMA/ionomycin for 5 hours in the presence of GolgiStop (BD Biosciences), followed by surface epitope staining markers before being fixed/permeabilized (BD Cytofix/Cytoperm™) and stained with antibodies targeting intracellular antigens. Cells were finally fixed with 1.5% formaldehyde for 10 minutes at room temperature and analyzed on a FACSVerse flow cytometer (BD Bioscience). Data were analyzed using FlowJo software (Tree Star Inc.).
(§2) PDAC human subject study was approved by the Research Ethics Committee of China Medical University & Hospital (CMUH109-REC2-148). 10 ml of fresh blood and 0.1-0.5 mm^3 of tumor mass were collected on the same day from patients who underwent surgical resection. Monocytes were isolated from the patients' peripheral blood mononuclear cell (PBMC) or tumor mass. Cells were resuspended in RPMI medium containing 10% FBS and seeded at a density of 2×10^5/well in a 12-well plate. Cells were treated with genipin (12.5 μM, 25 μM) and incubated overnight before staining for the flow cytometry analysis.

tumors of PDAC patients = assay: Ex vivo genipin treatment of tumors of PDAC patients, flow cytometry; type: cell-based, human
Description: as §1, §2

## COC(=O)C1=CO[C@@H](O)[C@@H]2C(CO)=CC[C@H]12 [genipin]
PBMC of PDAC patients; genipin 12.5, 25 μM overnight, FIG. 8A-8B
  Tc1 cells (IFN-γ-producing CD8+ T cells): increased Tc1 cells
PBMC of PDAC patients; genipin overnight, FIG. 8E
  Th1 cells population (IFN-γ-producing CD4+ T cells): no significant changes
PBMC of PDAC patients; genipin overnight, FIG. 8F
  Th17 cells (IL-17-producing CD4+ T cells): did not increase
Tumors of PDAC patients; genipin 12.5, 25 μM overnight, FIG. 8C-8D
  Tc1 cells (IFN-γ-producing CD8+ T cells): increased Tc1 cells
Tumors of PDAC patients; genipin overnight, FIG. 8G
  Th1 cells population (IFN-γ-producing CD4+ T cells): no significant changes
Tumors of PDAC patients; genipin overnight, FIG. 8H
  Th17 cells (IL-17-producing CD4+ T cells): did not increase

Reference: patent US20250018030A1, “PHARMACEUTICAL COMPOSITION FOR PROMOTING CANCER IMMUNOTHERAPY AND METHOD FOR PROMOTING CANCER IMMUNOTHERAPY” (China Medical University, priority 2023, published 2025)
